The source of these data is patent US20070009621A1, “Correcting systemic androgen levels using Eurycoma longifolia” (priority 2005, published 2007).

This assay has as its system rat testicular cell homogenate. The assay can be described thus: Incubation of rat testicular homogenate with pregnenolone and extract, capillary gas chromatography of steroids. The class given is biochemical. As to conditions: gas capillary analysis. As to the method: To preliminary assess the activity of Eurycoma longifolia, an extract of it was prepared and incubated with rat testicular cell homogenate. After the incubation was completed, the samples were measured using capillary gas chromatography to measure the presence of various hormones. 500 g of the dried pulverized root was boiled exhaustively with 5 L of distilled water for 24 hours. The extract was concentrated to a 40% mass, allowed to cool to room temperature, filtered using a 4 micron filter, then centrifuged at 10,000 rpm for five minutes. Supernatant was collected and freeze-dried yielding yellow brown colored fine powder. Tris/sucrose buffer, PH 7.4 was used as homogenizing buffer and medium for suspending the testicular homogenate. This buffer, consisting of 0.25M sucrose, 0.05M Tris-HCL, 0.025M KCl and 0.005M MgCl2H2O was prepared fresh and kept cool at 4° C. Sprague Dawley albino male rats were sacrificed by stunning followed by cervical dislocation. Testes were removed quickly, pooled and homogenized in Tris/sucrose buffer (10% w/v) using homogenizer. Homogenate was then centrifuged at 1000×g (3000 rpm) for 20 minutes to remove the nuclei and cell debris. Post-nuclei suspension was used for incubation studies; a portion of the suspension was reserved for protein determination. 10 ml of the testes homogenate was first treated with 5 ml ethyl acetate before incubation process. […]

`CC(=O)[C@H]1CC[C@H]2[C@@H]3CC=C4C[C@@H](O)CC[C@]4(C)[C@H]3CC[C@]12C` [Prenenolone, Pregnenolone]: the “An α” value (16-androstene steroid metabolite (pheromone)) is reported as 1.62. Besides, where the note is “16-androstene steroid metabolites (pheromones)”, the “An β Andien β” value is 1.99.
